Reference: patent publication US4808703A, “Novel 3-(4'-aminobutylamino) propylaminobleomycin derivatives” (Zaidan Hojin Biseibutsu Kagaku Kenku Kai, priority 1983, dated 1989)
Where two headings read alike, the source gives them in different places.

Legend:
ICR mice [1] = settings: mouse, in vivo
Method: (§3) ICR mice (male, 15-week-old) were used in groups of 10 each. The dose of each test compound was 5 mg/kg injected intraperitoneally once daily for 10 consecutive days. After the administration of the compound was completed, the animals were reared for 5 weeks for observation. Then, the animals were killed and autopsied so that the incidence and grade of pulmonary fibrosis were examined.
(§4) The incidence of pulmonary fibrosis was expressed as the number of mice developing pulmonary fibrosis in the group of mice administered the test compound. The grade of pulmonary fibrosis was expressed as the total score for pulmonary fibrosis divided by the total number of specimens.
(§5) 1 point: Accumulation of exudate in the alveoli, and fibrosis-like changes seen in the alveolar septum.
(§6) 2 points: Fibrosis seen at several sites.
4 points: Sporadic fibrosis.
(§7) 6 points: Extensive fibrosis (fibrosis seen in more than 170 of the total region).
(§8) The ratio in the table represents the ratio of the incidence of the test compound to that of bleomycin complex, or the ratio of the grade of the test compound to that of bleomycin complex.

Bacillus subtilis = assay: Antibacterial activity by the agar cylinder plate method, Bacillus subtilis; type: cell-based; settings: copper-containing compound, standard bleomycin A2 = 1,000 mcg potency/mg
From the text: (§1) (1) Antibacterial activity against Mycobacterium smegmatis ATCC607 and Bacillus subtilis
(§2) The above activity ws determined by the agar cylinder plate method using the above microorganisms.

[2] = test system: Mycobacterium smegmatis ATCC 607; assay: Antibacterial activity by the agar cylinder plate method, Mycobacterium smegmatis ATCC607; type: cell-based; settings: copper-containing compound, standard bleomycin A2 = 1,000 mcg potency/mg
From the text: as §1, §2

HeLa S3 cells = assay: Growth-inhibiting effect on HeLa S3 cell cultured; type: cell-based; settings: 3 days of incubation after addition
Method: (2) Growth-inhibiting effect on HeLa S3 cell cultured
A culture medium (10% calf serum-containing MEM) in a plastic dish was inoculated with HeLa S3 cells, and a bleomycin compound was added 2 days later. Incubation was continued for a further 3 days, and then the number of viable cells was counted. Growth inhibitory rate was calculated from the following equation:
Growth inhibitory rate (%)=100×(B-A)/(B-C)
where A is the final bacterial cell count 3 days after addition of the test sample, B is the final bacterial cell count in the control involving no addition of the test sample, and C is the bacterial cell count at the time of addition of the test sample.
ID50, the concentration producing a growth inhibitory rate of 50%, was estimated from the curve of the concentration of the test sample Vs. the growth inhibitory rate.

ICR mice [3] = assay: Pulmonary toxicity (fibrosis of the lung) in mice
Method: as §3, §4, §5, §6
4 points: Sporadic fibrosis.
as §7, §8

[4] = test system: Mycobacterium smegmatis ATCC 607; settings: copper-free bleomycin A2; standard for both Mycobacterium smegmatis ATCC607 and Bacillus subtilis; cited from earlier work

Molecule	Grade ratio (ICR mice [1])	Incidence ratio (ICR mice [1])	Incidence: Number of mice with pulmonary fibrosis/Number of mice in the treatment group (ICR mice [1])	Antibacterial titer of copper-compound (Bacillus subtilis)	Antibacterial titer of copper-compound [2]	ID50 of copper-free compound (concentration producing a growth inhibitory rate of 50%) (HeLa S3 cells)	Incidence: Number of mice with pulmonary fibrosis/Number of mice in the treatment group (ICR mice [3]; 5 mg/kg i.p. once daily for 10 days, autopsy after 5 weeks of observation, count)	Incidence (%) of pulmonary fibrosis (ICR mice [3]; 5 mg/kg i.p. once daily for 10 days, autopsy after 5 weeks of observation, percentage in parentheses)	Grade: Total score for pulmonary fibrosis/Total specimens (ICR mice [3]; 5 mg/kg i.p. once daily for 10 days, autopsy after 5 weeks, scores 0, 1, 2, 4, 6 points, fraction)	Grade of pulmonary fibrosis (total score divided by total number of specimens) (ICR mice [3]; 5 mg/kg i.p. once daily for 10 days, autopsy after 5 weeks, scores 0, 1, 2, 4, 6 points, value in parentheses)	Grade ratio (ICR mice [3]; grade of the test compound to that of bleomycin complex)	Incidence ratio (ICR mice [3]; incidence of the test compound to that of bleomycin complex)	Titer of the standard substance bleomycin A2 [4]
3-(4'-cycloundecanylmethylaminobutylamino)propylaminobleomycin [Compound 7]	0.00	0.00	0/10	7330 mcg potency/mg	24240 mcg potency/mg	0.16 µg/mL	–	–	–	–	–	–	–
Cc1c(N)nc(C(CC(N)=O)NCC(N)C(N)=O)nc1C(=O)NC(C(=O)NC(C)C(O)C(C)C(=O)NC(C(=O)NCCc1nc(-c2nc(C(=O)NCCC[N+](C)(CCCCN(Cc3ccccc3)Cc3ccccc3)Cc3ccccc3)cs2)cs1)C(C)O)C(OC1OC(CO)C(O)C(O)C1OC1OC(CO)C(O)C(OC(N)=O)C1O)c1cnc[nH]1 (stereo not drawn) [Compound 12, 3-[N--methyl-N--benzyl-N--(4'-dibenzyl-aminobutyl)amino]propylaminobleomycin]	–	–	–	832 mcg potency/mg	13733 mcg potency/mg	–	0/10	0%	0/30	0	0.00	0.00	–
Cc1c(N)nc(C(CC(N)=O)NCC(N)C(N)=O)nc1C(=O)NC(C(=O)NC(C)C(O)C(C)C(=O)NC(C(=O)NCCc1nc(-c2nc(C(=O)NCCC[S+](C)C)cs2)cs1)C(C)O)C(OC1OC(CO)C(O)C(O)C1OC1OC(CO)C(O)C(OC(N)=O)C1O)c1cnc[nH]1 (stereo not drawn) [bleomycin A2]	–	–	–	–	–	–	–	–	–	–	–	–	1,000 mcg potency/mg
